# Columns and labels:
# [1] = system: HEK 293 cell lines expressing luciferase, GPC3-hFc, NTSR1-GFP, SERT-GFP; assay: Validation transfection of siRNAs against ten selected genes in four HEK 293 cell lines expressing different reporter proteins; format: cell-based, human; details: 40 nM, 1 representative siRNA per gene; for expression of reporter proteins: luciferase, GPC3-hFc, NTSR1-GFP, SERT-GFP
# Method: Ten targeted genes were selected and tested in four HEK 293 cell lines expressing different reporter proteins, glycan-3 hFc-fision protein (GPC3-hFc), neurotensin receptor type 1-GFP (NTSR1-GFP) and serotonin transporter-GFP (SERT-GFP), using 1 representative siRNA for each gene. Transfection was performed in 12-well plate format. 500 μL of serum free DMEM media containing siRNA and Lipofectamine™ RNAiMax was incubated in each well for 20 min at ambient temperature and 500 μL DMEM containing 20% FBS and cells was then added for transfection. The final siRNA concentration in each well was 40 nM. Lipofectamine™ RNAiMax volume and cell seeding number in each well have been optimized for each cell line (Table 2).
# 5 days after transfection, clarified cell culture supernatant was used for determination of GPC3-hFc concentration by ELISA and cells were detached and counted by trypan blue exclusion using a CEDEX™ cell quantification system (Roche, Mannheim, Germany). AffiniPure™ F(ab′)2 Fragment Goat Anti-Human IgG (min X Bov, Ms, Rb Sr Prot, Cat. 109-006-170, Jackson Immunology, 5 μg/mL in PBS) was used to coat a 96-well plate (50 μL per well) at 4° C. overnight. After blocking the plate with 2% BSA in PBS, 50 μl of pre-diluted cell culture supernatant was added, and the plate was incubated at room temperature for 1 h to allow binding to occur. After the plate was washed twice with PBS containing 0.05% Tween 20, Peroxidase-conjugated AffiniPure™ Goat-anti-human IgG (Cat. 109-035-098, Jackson Immunology) was added at 1:4000 dilution (50 μL/well). Following incubation at room temperature for 1 hr, the plate was washed 4 times and signals were detected with Peroxidase Substrate System (KPL).
# 3 days after transfection, cells were induced with 1 μg/mL tetracycline. 24 hours later, cells from each well were detached with non-enzymatic cell dissociation buffer (Gibco, Cat. No. 13150-016) and washed twice with cold PBS. Cell densities were adjusted to 0.5 million cells/ml with PBS and then subjected to flow cytometry analysis. Green fluorescence was measured with Guava Easycyte 5HT™ and Incyte™ software (Millipore). The green fluorescence signal and cell gating were adjusted using uninduced T-REx-293-NTSR1-GFP cells, with more than 99.5% of the cells in low fluorescence range (<100). The setting was kept the same for all cell samples.
# [2] = system: T-REx-293-NTSR1-GFP cells; assay: High-throughput human miRNA mimic library screen, image-based per cell green fluorescence (NTSR1-GFP expression); details: per cell green fluorescence intensity
# Method: T-REx-293-NTSR1-GFP cells were screened with a miRNA mimic library (Qiagen) based on Sanger miRBase™ 13.0 and consisting of 875 miRNAs mimics. For transfection, 0.8 pmol of each mimic was spotted to 384 well plate wells (Corning) and 20 μL of serum-free DMEM containing 0.1 μL of Lipofectamine™ RNAiMax (Life Technologies) was then added to each well. This lipid-miRNA mixture was incubated at ambient temperature for 30 min prior to adding 2000 cells in 20 μL of DMEM containing 20% certified FBS (Gibco). Transfected cells were incubated at 37° C. in 5% CO2 for 72 hours and induced with 1 μg/mL tetracycline for 24 hours for NTSR1-GFP expression. Cells were then fixed with 2% paraformaldehyde (Electron Microscopy Sciences), stained with Hoechst™ 33342 (Life Technologies) for 45 minutes and gently washed with PBS. Plates were imaged with an ImageXpress Micro XL™ (Molecular Devices). Total cell number and per cell green fluorescence intensity were calculated using MetaXpress™ software (Molecular Devices) employing the Multi-Wavelength Cell Scoring™ application module. […] A full column of positive control siRNA targeting GFP (GFP-22 siRNA, Qiagen) was also used as on-plate reference for transfection efficiency. The median absolute deviation (MAD)-based z-score was calculated for each sample.
# NTSR1 = assay: [3H]NT binding assay on detergent-solubilized cells for functional expression of NTSR1; format: cell-based; details: specific [3H]NT binding, 2 nM
# Method: Validation transfections were performed in 12-well plates with miScript™ miRNA mimics (Qiagen, Cat. No. 219600-S0), SilencerSelect™ Negative Control #2 and lethal control siRNA (Qiagen AllStars Cell Death Control™) served as a control for transfection efficiency. Cells were transfected as described for screening except 0.15 million cells were transfected with 40 nM miRNA using 6.25 ul Lipofectamine™ RNAiMax in a total volume of 1 mL of media. 72 hours after transfection, cells were induced with 1 μg/mL tetracycline. 24 hours later, cells from each well were detached with non-enzymatic cell dissociation buffer (Gibco, Cat. No. 13150-016) and washed twice with cold PBS. Cell densities and viability were determined by trypan blue exclusion using a CEDEX™ cell quantification system (Roche, Mannheim, Germany). Based on the counts, cell densities were adjusted to 0.5 million cells/ml with PBS and then subject to flow cytometry analysis. The remaining cells were pelleted and frozen on dry ice for [^3H]NT binding assays.
# The detergents n-Dodecyl-β-D-maltoside (LM), 3-[(3-cholamidopyropyl) dimethylammonio]-1-propane sulfonate (CHAPS) and cholesteryl hemisuccinate Tris salt (CHS) were obtained from Anatrace. Cell pellets from 2 mL of suspension culture were suspended in Tris-glycerol-NaCl buffer. Then the detergents LM, CHAPS and CHS were added to give a final buffer composition of 50 mM TrisHCl pH 7.4, 200 mM NaCl, 30% (v/v) glycerol, 1% (w/v) LM, and 0.6% (w/v) CHAPS and 0.12% (w/v) CHS in a total volume of 0.5 mL. The samples were placed on a rotating mixer at 4° C. for 1 hour. Cell debris and non-solubilized material were removed by ultracentrifugation (TL100 rotor, 60 k rpm, 4° C., 30 min in Optima Max™ bench-top ultracentrifuge, Beckman), and the supernatants containing detergent-solubilized NTSR1 were used to determine the total number of expressed receptors by a detergent-based radio-ligand binding assay (see below).
# Tritiated neurotensin agonist [^3H]NT ([3,11-tyrosyl-3,5-^3H(N)]-pyro[…] SEQ ID NO:27) was purchased from Perkin Elmer. Ligand-binding assays with detergent-solubilized receptors were carried out in TEBB assay buffer (50 mM Tris pH 7.4, 1 mM EDTA, 40 μg/mL bacitracin, 0.1% BSA) containing 0.1% (w/v) LM, 0.2% (w/v) CHAPS and 0.04% (w/v) CHS. For one-point assays, receptors were incubated with 2 nM [^3H]NT on ice for 1 hour in a volume of 150 μL. The concentration of [^3H]NT used was at least 5-fold above the apparent dissociation constants for detergent-solubilized NTSR1 to allow high receptor occupancy. Separation of the receptor-ligand complex from free ligand (100 μL) was achieved by centrifugation-assisted gel filtration using Bio-Spin™ 30 Tris columns (BioRad), equilibrated with RDB buffer (50 mM Tris-HCl, pH 7.4, 1 mM EDTA, 0.1% (w/v) LM, 0.2% (w/v) CHAPS, 0.04% (w/v) CHS). Non-specific [^3H]NT binding of 220 dpm was subtracted from total binding to calculate the total amount of receptors in T-REx-293-NTSR1-GFP cells. The number of functional NTSR1 was estimated by specific [^3H]NT binding assuming one ligand-binding site per receptor molecule. The number of cells in the assay was derived by cell counting at cell harvest. This approach led to the calculation of the parameter “receptors/cell”.
# [3] = system: CMV-Luc2-HygroHEK293 cell line; assay: Validation of miRNAs with luciferase-expressing cells (ONE-Glo / CellTiter-Glo, 12-well); format: cell-based, human; details: 40 nM miRNA, 72 h, 12-well, versus siN.C.
# Method: CMV-Luc2-HygroHEK293 cell line constitutively expressing luciferase is purchased from Promega. Validation transfections were performed in 12-well plates with miScript miRNA mimics (Qiagen, Cat. No. 219600-S0), SilencerSelect™ Negative Control #2 and lethal control siRNA (Qiagen AllStars Cell Death Control™) served as a control for transfection efficiency. Cells were transfected in duplicates as described above in the screening method with the following modification: 0.1 million cells were transfected with 40 nM miRNA using 6.25 ul Lipofectamine™ RNAiMax in a total volume of 1 mL of media. 72 hours after transfection, 500 μL of ONE-Glo™ Reagent (Promega) was added to one set of replicates for luciferase activity quantification and 500 μL of CellTiter-Glo™ Reagent (Promega) was added to the second set of replicates for viable cell density measurement. All plates were incubated at room temperature for 20 minutes to stabilize luminescent signal and then measured with SpectraMax i3™ plate reader (Molecular Devices). Per cell luciferase production was calculated from overall luciferase activity and viable cell number.
# HEK-GPC3-hFc cell line = assay: Validation of miRNAs with GPC3-hFc-expressing cells (ELISA and cell count); format: cell-based, human; details: 40 nM miRNA, 6 days after transfection, versus siN.C.
# Method: HEK-GPC3-hFc cell line constitutively secreting glypican-3 hFc-fusion protein (GPC3-hFc) was a gift from the National Cancer Institute of the NIH. Cells were grown in DMEM supplemented with 10% FBS in a humidified incubator set at 37° C. and 5% CO2.
# Cells were transfected in 12-well plates as described above in the screening method with the following modification: 0.15 million cells were transfected with 40 nM miRNA using 6.25 ul Lipofectamine™ RNAiMax in a total volume of 1 mL of media. 6 days after transfection, cell culture supernatant was collected and cleared using centrifuge for GPC3-hFc concentration determination with ELISA and cells were detached and counted by trypan blue exclusion using a CEDEX™ cell quantification system (Roche, Mannheim, Germany). Per cell GPC3-hFc production can be calculated from overall GPC3-hFc yield and viable cell number.
# AffiniPure™ F(ab′)2 Fragment Goat Anti-Human IgG (min X Bov, Ms, Rb Sr Prot, Cat. 109-006-170, Jackson Immunology) was used to coat a 96-well plate at 5 μg/mL in PBS buffer, 50 μL per well, at 4° C. overnight. After the plate was blocked with 2% BSA in PBS buffer, pre-diluted cell culture supernatant was added, and the plate was incubated at room temperature for one hour to allow binding to occur. After the plate was washed twice with PBS containing 0.05% Tween 20, Peroxidase-conjugated AffiniPure™ Goat-anti-uman IgG (Cat. 109-035-098, Jackson Immunology) was added at 1:4000 dilutions, 50 ul/well. Following incubating at room temperature for one hour, the plate was washed 4 times and detected with Peroxidase Substrate System (KPL).
Substance,viable cell number [1],expression of reporter proteins [1],Signal relative to negative control (%) [2] [%],MAD-based z-score ([2]; 72 h after transfection plus 24 h tetracycline induction),functional neurotensin receptor molecules per cell (NTSR1),improvement of luciferase expression (per cell luciferase activity) [3],improvement of per cell GPC3-hFc secretion (HEK-GPC3-hFc cell line)
"INTS1 siRNA: 1 representative siRNA for gene INTS1 used in validation transfection; sequence not stated (guide AGAUCUUUGUCAAGGUGUATT; other strand without entry, further chemistry not given here; listed as Homo sapiens)",significantly reduced viable cell number,consistently improved,,,,,
"PPP2R1A siRNA: 1 representative siRNA for gene PPP2R1A used in validation transfection; sequence not stated (guide CUUCGACAGUACUUCCGGATT; other strand without entry, further chemistry not given here; listed as Homo sapiens)",minimal negative effects,consistently improved,,,,,
UUGGGGAAACGGCCGCUGAGUG [miR-2110],,,160,2.3,13.8 million functional neurotensin receptor molecules per cell,relevant for improving luciferase expression,enhanced per cell GPC3-hFc secretion

# Reference: patent publication US20160319277A1, “METHODS OF IMPROVED PROTEIN PRODUCTION USING MIRNAs AND SIRNAs” (THE JOHNS HOPKINS UNIVERSITY, priority 2015, published 2016)
